# Data published in ChEMBL document CHEMBL1201862, “PubChem BioAssay data set” (2004).
# Active and inactive are the calls of the source.
# Columns and labels:
# [1] = biological target: Major prion protein (Homo sapiens, UniProt P04156); type: functional, cell-based
# [2] = biological target: T1, Nuclear receptor subfamily 0 group B member 1 (Homo sapiens, UniProt P51843); assay: Luminescence-based cell-based high throughput dose response assay for inhibitors of the orphan nuclear receptor subfamily 0, group B, member 1 (DAX1; NR0B1). [Related pubchem assays (depositor defined):AID504766, AID504790]; type: functional
# T1 sequence (P51843 whole entry): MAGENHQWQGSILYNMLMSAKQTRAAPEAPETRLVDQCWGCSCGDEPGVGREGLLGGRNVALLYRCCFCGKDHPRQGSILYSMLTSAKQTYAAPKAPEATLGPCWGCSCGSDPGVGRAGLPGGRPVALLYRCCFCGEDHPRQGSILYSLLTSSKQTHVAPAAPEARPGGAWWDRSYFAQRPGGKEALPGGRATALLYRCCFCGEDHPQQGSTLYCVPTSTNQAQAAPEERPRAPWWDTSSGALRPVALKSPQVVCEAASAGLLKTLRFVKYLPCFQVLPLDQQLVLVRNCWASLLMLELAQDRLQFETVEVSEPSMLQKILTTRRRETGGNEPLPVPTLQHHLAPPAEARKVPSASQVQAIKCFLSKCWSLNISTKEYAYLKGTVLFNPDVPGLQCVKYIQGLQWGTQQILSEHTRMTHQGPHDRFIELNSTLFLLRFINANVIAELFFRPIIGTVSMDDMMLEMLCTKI
# [3] = test system: HEK293; assay: cells; type: functional, cell-based; conditions: Homo sapiens
# [4] = cells
# [5] = test system: BJ; assay: cells; type: functional, cell-based; conditions: Homo sapiens
# [6] = test system: INS1; assay: INS-1E survival protection against cytokine death – cell-based, luminescence, retest, dose response (AID 449756); type: functional; conditions: Rattus norvegicus;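 also: cell death triggered by IL-1 beta plus TNF-alpha plus IFN-gamma mixture; protective hits raise ATP signal compared with cytokine alone wells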
# [7] = test system: BJ; assay: BJ-TERT-LT-ST fibroblast viability loss – cell-based, RAS-independent, luminescence, dose response (AID 1935); type: functional; conditions: Homo sapiens;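 also: BJ fibroblasts immortalized with TERT plus LT and ST oncogenes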
# [8] = biological target: T2, Replicative DNA helicase DnaB (Mycobacterium tuberculosis, UniProt P9WMR3); assay: DnaB intein splicing inhibitors, dose response, biochemical, cell-free fluorescence (AID 449749); type: functional
# T2 sequence (P9WMR3 whole entry): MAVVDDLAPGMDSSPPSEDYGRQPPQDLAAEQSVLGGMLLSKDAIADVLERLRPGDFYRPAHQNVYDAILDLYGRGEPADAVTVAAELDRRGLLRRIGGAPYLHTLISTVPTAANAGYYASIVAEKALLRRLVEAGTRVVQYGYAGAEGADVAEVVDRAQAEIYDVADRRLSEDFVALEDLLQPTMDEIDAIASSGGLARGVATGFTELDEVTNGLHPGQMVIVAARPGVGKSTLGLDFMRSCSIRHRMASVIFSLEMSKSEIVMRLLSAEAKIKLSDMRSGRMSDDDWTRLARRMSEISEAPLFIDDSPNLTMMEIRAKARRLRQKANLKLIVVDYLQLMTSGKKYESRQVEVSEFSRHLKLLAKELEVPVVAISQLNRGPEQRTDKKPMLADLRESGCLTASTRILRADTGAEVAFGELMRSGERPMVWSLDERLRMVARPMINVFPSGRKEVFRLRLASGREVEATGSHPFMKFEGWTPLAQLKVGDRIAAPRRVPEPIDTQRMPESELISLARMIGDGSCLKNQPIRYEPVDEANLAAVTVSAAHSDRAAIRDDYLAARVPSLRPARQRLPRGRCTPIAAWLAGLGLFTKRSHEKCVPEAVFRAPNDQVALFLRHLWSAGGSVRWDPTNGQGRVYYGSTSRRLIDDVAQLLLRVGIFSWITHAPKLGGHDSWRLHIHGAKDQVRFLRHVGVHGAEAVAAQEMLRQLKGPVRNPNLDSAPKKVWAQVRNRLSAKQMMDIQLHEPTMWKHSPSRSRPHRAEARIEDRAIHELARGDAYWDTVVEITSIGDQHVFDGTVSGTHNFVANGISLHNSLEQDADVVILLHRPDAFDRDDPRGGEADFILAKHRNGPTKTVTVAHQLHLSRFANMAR
# [9] = test system: BJ; assay: BJ-TERT fibroblast viability loss – cell-based, RAS-independent, luminescence, dose response (AID 1933); type: functional; conditions: Homo sapiens
# [10] = biological target: T3, Protein RecA (Mycobacterium tuberculosis, UniProt P9WHJ3); assay: Fluorescence Cell-Free Homogeneous Dose Retest to Identify Inhibitors of RecA-Intein Splicing Activity. [Related pubchem assays (depositor defined):AID2097, AID2223, AID489010, AID492950]; type: functional
# T3 sequence (P9WHJ3 whole entry): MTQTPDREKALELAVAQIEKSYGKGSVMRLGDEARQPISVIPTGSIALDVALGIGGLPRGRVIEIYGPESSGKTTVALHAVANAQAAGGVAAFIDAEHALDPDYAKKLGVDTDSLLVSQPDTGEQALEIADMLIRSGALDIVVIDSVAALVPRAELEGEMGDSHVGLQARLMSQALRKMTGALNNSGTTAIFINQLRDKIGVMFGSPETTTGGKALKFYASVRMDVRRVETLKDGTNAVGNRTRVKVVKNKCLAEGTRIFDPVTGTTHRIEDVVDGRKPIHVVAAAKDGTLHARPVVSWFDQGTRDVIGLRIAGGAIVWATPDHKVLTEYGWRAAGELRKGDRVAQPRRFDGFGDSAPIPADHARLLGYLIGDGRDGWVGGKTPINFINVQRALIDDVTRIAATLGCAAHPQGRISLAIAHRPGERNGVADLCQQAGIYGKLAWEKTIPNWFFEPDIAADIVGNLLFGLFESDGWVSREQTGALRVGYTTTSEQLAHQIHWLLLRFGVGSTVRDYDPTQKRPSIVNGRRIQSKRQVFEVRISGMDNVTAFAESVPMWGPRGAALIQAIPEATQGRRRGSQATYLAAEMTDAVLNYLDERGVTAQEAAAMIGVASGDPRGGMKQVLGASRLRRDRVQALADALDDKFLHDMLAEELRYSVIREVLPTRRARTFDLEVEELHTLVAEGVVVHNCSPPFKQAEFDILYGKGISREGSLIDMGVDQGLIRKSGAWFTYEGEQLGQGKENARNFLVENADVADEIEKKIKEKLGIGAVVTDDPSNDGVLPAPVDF
# [11] = biological target: T4, ORF 73 (Human herpesvirus 8, UniProt O40947); assay: KSHV LANA DNA-binding disruption – biochemical, fluorescence polarization, cherry-picked samples, dose response (AID 504725); parameters: species or system Human gammaherpesvirus 8;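 also: fluorescence polarization of a labeled DNA duplex reporting LANA DNA binding; potency is for inhibitors that block LANA binding to the DNA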
# T4 sequence (O40947 whole entry): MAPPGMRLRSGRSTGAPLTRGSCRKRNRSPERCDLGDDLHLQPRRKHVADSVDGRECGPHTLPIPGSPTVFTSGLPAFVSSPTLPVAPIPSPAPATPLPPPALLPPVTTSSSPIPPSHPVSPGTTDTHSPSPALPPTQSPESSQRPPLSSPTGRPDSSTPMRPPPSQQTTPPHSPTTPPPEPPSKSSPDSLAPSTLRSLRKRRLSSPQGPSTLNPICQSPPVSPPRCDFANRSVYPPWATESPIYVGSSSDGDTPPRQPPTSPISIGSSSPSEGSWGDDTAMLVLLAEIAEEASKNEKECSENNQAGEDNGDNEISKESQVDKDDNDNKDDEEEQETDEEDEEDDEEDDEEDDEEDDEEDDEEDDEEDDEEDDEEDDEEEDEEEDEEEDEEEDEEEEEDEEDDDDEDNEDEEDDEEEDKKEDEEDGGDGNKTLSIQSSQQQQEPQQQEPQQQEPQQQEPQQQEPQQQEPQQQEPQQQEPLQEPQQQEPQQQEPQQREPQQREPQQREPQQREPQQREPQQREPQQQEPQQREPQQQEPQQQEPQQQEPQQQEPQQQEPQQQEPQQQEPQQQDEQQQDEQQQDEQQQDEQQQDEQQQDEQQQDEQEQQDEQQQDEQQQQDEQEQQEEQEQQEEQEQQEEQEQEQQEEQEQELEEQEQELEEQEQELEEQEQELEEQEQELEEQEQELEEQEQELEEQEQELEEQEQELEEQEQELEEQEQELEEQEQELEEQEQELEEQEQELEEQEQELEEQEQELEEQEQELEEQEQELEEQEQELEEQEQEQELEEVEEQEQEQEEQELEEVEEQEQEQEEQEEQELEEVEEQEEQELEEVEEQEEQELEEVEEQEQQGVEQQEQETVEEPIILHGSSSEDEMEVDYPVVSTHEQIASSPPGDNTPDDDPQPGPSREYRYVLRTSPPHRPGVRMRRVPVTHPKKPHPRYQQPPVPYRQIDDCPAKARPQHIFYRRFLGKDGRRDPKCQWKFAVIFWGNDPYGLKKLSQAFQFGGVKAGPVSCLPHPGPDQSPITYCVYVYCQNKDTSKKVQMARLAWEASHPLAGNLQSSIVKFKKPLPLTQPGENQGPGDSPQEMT
# [12] = biological target: Protein S100-A4 (Homo sapiens, UniProt P26447); assay: human S100A4 peptide interaction inhibition curves – biochemical, fluorescence polarization, cherry-picked hits, dose response (AID 687001); type: functional
# Protein S100-A4, sequence (P26447 whole entry): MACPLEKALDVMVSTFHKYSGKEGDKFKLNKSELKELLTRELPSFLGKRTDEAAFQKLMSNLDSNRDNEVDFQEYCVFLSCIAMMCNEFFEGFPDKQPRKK
# [13] = DRD fibroblast viability loss – cell-based, non-viral oncogenic, luminescence, dose response (AID 1934); type: functional; conditions: Homo sapiens
# [14] = biological target: Keap1/Nrf2 (Homo sapiens, UniProt Q14145); assay: disruptors of Keap1 binding to Nrf2 peptide – biochemical, fluorescence polarization, cherry-picked samples, dose response (AID 588683)
# [15] = test system: HeLa; assay: viability loss in HeLa cells – cell-based, 24 h, cherry-picked samples, cytotoxicity control, dose response (AID 504726); type: functional; conditions: Homo sapiens;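 also: potency for cytotoxicity as loss of luminescence signal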
# [16] = biological target: Beta-2 adrenergic receptor (Homo sapiens, UniProt P07550); assay: ADRB2 activation measured by internalization – cell-based, FAP fluorogen, flow cytometry, cherry pick 1, dose response (AID 588763); type: functional
# Beta-2 adrenergic receptor, sequence (P07550 whole entry): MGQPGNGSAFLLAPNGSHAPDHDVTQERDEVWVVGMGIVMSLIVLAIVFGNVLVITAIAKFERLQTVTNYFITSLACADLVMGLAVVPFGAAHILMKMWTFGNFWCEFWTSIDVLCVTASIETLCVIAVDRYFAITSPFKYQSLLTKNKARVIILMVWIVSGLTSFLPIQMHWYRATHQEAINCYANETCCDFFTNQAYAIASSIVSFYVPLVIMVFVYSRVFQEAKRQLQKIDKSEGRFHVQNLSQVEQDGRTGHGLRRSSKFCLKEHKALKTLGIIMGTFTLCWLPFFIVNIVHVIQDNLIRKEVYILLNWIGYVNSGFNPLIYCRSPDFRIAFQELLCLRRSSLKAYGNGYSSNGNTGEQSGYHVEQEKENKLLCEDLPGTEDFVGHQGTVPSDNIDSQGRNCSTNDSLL
# [17] = biological target: Peroxisome proliferator-activated receptor gamma/Nuclear receptor coactivator 3 (Homo sapiens, UniProt P37231); type: functional;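 also: agonist potency for raising coactivator recruitment to the receptor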
# Peroxisome proliferator-activated receptor gamma/Nuclear receptor coactivator 3, sequence (P37231 whole entry): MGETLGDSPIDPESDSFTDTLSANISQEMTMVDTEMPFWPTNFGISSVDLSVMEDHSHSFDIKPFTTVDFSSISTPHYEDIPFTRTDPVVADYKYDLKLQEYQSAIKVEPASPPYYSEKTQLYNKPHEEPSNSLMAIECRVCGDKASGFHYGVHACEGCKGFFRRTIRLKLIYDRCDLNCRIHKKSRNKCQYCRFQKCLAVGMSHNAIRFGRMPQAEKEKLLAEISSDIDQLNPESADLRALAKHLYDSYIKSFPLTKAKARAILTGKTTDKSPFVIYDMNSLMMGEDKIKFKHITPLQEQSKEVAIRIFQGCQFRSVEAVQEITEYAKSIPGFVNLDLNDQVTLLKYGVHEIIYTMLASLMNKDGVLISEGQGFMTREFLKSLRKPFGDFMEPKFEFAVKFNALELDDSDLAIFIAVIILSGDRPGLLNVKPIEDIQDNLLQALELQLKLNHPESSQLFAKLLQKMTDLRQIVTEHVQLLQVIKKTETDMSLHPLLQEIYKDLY
# Peroxisome proliferator-activated receptor gamma/Nuclear receptor coactivator 3, sequence (Q9Y6Q9 whole entry, further chain): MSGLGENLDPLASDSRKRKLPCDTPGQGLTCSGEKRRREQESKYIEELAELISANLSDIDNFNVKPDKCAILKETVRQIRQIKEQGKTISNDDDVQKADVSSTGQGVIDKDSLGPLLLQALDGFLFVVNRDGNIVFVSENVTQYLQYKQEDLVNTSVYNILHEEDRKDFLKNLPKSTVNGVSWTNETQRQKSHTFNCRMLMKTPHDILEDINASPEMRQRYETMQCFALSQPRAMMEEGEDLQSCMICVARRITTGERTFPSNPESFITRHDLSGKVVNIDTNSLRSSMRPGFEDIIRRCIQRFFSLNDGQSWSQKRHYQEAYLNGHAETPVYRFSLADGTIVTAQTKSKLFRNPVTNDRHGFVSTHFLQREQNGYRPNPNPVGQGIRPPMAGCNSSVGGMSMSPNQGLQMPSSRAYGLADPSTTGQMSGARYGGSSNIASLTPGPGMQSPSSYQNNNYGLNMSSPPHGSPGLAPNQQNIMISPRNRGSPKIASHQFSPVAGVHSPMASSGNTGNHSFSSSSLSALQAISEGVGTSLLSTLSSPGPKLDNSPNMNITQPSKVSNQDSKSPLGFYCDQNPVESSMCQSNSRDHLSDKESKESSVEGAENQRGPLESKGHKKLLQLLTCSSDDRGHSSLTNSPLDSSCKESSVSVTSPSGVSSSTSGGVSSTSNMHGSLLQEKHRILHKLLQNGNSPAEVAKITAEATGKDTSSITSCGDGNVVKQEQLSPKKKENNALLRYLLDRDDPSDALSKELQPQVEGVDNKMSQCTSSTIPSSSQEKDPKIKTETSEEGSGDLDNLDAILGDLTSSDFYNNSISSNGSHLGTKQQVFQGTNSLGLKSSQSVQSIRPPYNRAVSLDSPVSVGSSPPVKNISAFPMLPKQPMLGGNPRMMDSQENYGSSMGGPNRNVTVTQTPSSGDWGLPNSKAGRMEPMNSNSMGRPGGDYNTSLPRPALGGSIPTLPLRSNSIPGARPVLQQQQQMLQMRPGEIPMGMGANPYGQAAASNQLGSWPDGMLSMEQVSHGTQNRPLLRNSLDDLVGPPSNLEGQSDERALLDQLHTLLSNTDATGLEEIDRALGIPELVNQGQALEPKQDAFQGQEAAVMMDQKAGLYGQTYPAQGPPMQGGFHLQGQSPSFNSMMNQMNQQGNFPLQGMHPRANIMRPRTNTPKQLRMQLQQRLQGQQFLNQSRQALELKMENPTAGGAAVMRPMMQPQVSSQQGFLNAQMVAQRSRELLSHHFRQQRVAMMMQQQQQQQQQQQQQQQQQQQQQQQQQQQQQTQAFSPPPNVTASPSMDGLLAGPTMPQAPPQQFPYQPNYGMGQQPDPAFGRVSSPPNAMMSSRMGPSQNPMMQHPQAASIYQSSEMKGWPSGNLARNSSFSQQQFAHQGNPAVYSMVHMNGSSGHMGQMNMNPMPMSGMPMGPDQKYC
# [18] = biological target: Peroxisome proliferator-activated receptor gamma/Nuclear receptor coactivator 1 (Homo sapiens, UniProt P37231); type: functional;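 also: agonist potency as compounds enhance coactivator SRC-1 recruitment to PPARgamma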
# [19] = biological target: Peroxisome proliferator-activated receptor gamma/Nuclear receptor coactivator 2 (Homo sapiens, UniProt P37231); type: functional;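 also: agonist potency for raising coactivator recruitment to the receptor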
# Peroxisome proliferator-activated receptor gamma/Nuclear receptor coactivator 2, sequence (P37231 whole entry): as the sequence (P37231 whole entry) above
# Peroxisome proliferator-activated receptor gamma/Nuclear receptor coactivator 2, sequence (Q15596 whole entry, further chain): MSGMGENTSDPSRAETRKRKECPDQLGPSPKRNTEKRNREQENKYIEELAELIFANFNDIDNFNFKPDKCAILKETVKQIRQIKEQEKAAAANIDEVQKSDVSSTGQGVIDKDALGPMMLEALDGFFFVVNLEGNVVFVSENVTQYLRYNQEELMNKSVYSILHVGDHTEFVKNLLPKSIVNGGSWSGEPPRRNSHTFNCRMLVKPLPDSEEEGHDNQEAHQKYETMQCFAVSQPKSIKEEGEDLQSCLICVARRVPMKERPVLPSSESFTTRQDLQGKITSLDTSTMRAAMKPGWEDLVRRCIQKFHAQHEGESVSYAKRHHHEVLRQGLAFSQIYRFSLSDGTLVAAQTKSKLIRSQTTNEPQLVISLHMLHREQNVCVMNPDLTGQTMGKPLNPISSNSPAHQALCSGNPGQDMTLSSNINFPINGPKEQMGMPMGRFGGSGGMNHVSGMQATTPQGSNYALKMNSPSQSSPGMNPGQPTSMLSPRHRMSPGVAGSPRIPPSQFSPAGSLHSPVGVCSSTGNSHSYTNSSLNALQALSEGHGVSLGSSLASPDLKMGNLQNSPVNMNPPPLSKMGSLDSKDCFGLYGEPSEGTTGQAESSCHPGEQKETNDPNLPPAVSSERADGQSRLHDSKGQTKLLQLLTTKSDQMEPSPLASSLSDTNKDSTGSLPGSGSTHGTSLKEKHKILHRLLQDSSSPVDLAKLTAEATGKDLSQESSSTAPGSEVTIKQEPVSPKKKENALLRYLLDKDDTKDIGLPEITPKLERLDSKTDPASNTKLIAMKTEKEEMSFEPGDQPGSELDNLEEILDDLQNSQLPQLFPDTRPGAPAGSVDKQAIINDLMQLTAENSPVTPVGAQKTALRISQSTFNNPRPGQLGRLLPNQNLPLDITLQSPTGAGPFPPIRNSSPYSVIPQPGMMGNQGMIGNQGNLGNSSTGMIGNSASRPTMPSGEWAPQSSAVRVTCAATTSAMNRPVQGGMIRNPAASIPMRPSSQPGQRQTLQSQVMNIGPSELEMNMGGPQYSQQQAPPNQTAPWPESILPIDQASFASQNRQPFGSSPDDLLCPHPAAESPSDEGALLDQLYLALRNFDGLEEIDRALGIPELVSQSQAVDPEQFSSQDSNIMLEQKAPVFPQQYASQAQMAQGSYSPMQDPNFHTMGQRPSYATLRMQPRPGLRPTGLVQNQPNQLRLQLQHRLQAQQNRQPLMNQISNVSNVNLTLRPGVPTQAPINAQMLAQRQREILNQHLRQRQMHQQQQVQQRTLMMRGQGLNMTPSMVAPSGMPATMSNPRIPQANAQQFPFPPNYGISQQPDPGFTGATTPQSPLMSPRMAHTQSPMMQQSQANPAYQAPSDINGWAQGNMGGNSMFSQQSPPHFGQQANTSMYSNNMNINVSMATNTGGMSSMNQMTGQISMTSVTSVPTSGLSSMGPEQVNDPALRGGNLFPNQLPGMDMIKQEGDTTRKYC
structure (smiles),measurement,setting,value
CC(C)CSc1nnc2c3ccccc3n(C)c2n1,IC50,[1],4.37 µM (active)
same,IC50,[2],> 67.5 µM (inactive)
same,IC50,[3],> 67.5 µM (inactive)
same,IC50,[4],> 138 µM (inactive)
CN1CCN(c2ccc([N+](=O)[O-])c3no[n+]([O-])c23)CC1,EC50,[5],2.37 µM (inconclusive)
same,AC50,[6],1.83 µM (active)
same,EC50,[7],1.13 µM (inconclusive)
same,AC50,[8],> 380 µM (inactive)
same,EC50,[9],0.793 µM (active)
same,EC50,[10],> 380 µM (inactive)
same,AC50,[11],12.6 µM (active)
same,AC50,[12],3.3 µM (active)
same,EC50,[13],5.89 µM (active)
same,AC50,[14],> 52 µM (inactive)
same,AC50,[15],2.57 µM (active)
Cc1cc(C)n(-c2nc(SCC(=O)Nc3nccs3)c3c4c(sc3n2)COC(C)(C)C4)n1,EC50,[16],8.85 µM (inactive)
same,EC50,[17],> 79.4 µM (not active)
same,EC50,[18],> 79.4 µM (not active)
same,EC50,[19],> 79.4 µM (not active)
